Assay results: patent publication US8691947B2, “Materials related to sodium/potassium adenosine triphosphatase and Src” (The University of Toledo, priority 2010, dated 2014)
Entries after “also recorded” stand apart in the source; their conditions may differ.

Tests used:
[1] = molecular target: T1, Na/K-ATPase-associated Src (Sus scrofa, UniProt P05024); assay type: biochemical, pig; details: for Effect on activity of Na/K-ATPase-associated Src: purified pig kidney Na/K-ATPase treated with modifier or ouabain, incubated with purified Src; for Effect on activity of Na/K-ATPase-associated Src, Na/K-ATPase stabilized in E1P: NEM and AMP-PNP used together
T1 construct: The Na/K-ATPase was purified from pig kidney and the purified Src was purchased from Upstate; tissue Upstate (for the Src chain); host or cells: pig kidney
Protocol: The Na/K-ATPase was purified from pig kidney and the purified Src was purchased from Upstate. To stabilize the Na/K-ATPase in the E2P conformation, the purified Na/K-ATPase was treated by two different fluoride compounds (BeF and AIF) as described, washed and then incubated with Src. The ouabain-treated and control Na/K-ATPase/Src complex was used as positive and negative controls for the experiments, respectively. Similarly, the Na/K-ATPase was stabilized at the E1P state by NEM/AMPPNP as described and then analyzed.
The purified Na/K-ATPase was subjected to chymotrypsin or trypsin digestion as described. The digested enzyme was washed and assayed for Na/K-ATPase activity. The enzyme preparations with less than 25% activity was incubated with Src in 150 mM Na^+ medium in the presence or absence of 10 μM ouabain. The non-digested enzyme was used as control. […] Quantitative data was presented as mean±S.E. of at least 3 separate experiments. *, p<0.05; **, p<0.01.
The inventors utilized different chemical modifiers to stabilize the Na/K-ATPase in distinct conformational states and then assessed the conformation-dependent effect of Na/K-ATPase on Src. Fluoride compounds such as aluminum fluoride and beryllium fluoride, can interact with Na/K-ATPase as phosphate analogues, and stabilize the enzyme as well as other P-type ATPase in the E2P conformation.

Src SH2 domain = Src SH2 domain (Homo sapiens, UniProt P12931); assay: GST pull-down of GST-CD2 binding to Src in the absence and presence of peptides; details: peptide incubated with GST-CD2 and Src for 15 min, Western blot with anti-Src antibody
Protocol: CD2C2 was added to a mixture of Src and GST-CD2 at indicated concentrations. Src in the pull-down products was analyzed by Western blot with anti-Src antibody.
To support this notion, the inventors checked whether the peptides derived from C-terminus of CD2 can attenuate the binding between CD2 and Src. Purified GST-CD2 was incubated with Src in the absence and presence of peptides for 15 min. Then pull-down pellets were analyzed by Western blot with antibody against Src. […] If CD2C2 peptide disrupts the SH2/CD2 interaction, the inventors expect that CD2C2 may abolish CTS-induced Src activation. To test that, the inventors preincubated Src with indicated amount of CD2 peptides for 15 min in PBS. Then purified pig kidney Na/K-ATPase was added for another 15 min. 1 μM ouabain was added to mixture for 5 min. Then Src autophosphorylation was detected in the presence of 2 mM ATP/Mg^2+. […] Therefore, to search for new antagonists, the inventors will perform the following four sets of experiments.

Na/K-ATPase/Src complex = molecular target: T2, Na/K-ATPase/Src complex (Homo sapiens, UniProt P12931); assay: Ouabain-induced Src activation (Tyr418 autophosphorylation, Western blot) in a mixture of purified Na/K-ATPase and Src; assay type: biochemical; details: Src preincubated with peptide 15 min, pig kidney Na/K-ATPase 15 min, 1 μM ouabain 5 min, 2 mM ATP/Mg2+
T2 construct: purchased
Protocol: FIG. 4. […] CD2C2 peptide was incubated with purified Src (the amount was indicated as molar ratio of Src/Cd2C2) for 15 minutes in PBS solution. Then purified Na/K-ATPase from pig kidney was added for another 15 minutes. After that, ouabain was added to the reaction system for 5 minutes, followed by addition of 2 mM Mg2+/ATP. The Src activity was determined by Western blot probing with anti-phosphorylated Tyr418. A representative Western blot was shown, and quantitative data was presented as mean±S.E. of at 3 separate experiments. **, p<0.01.
FIG. 7B, antagonizing ouabain-induced Src activation by CD2C2. Src was preincubated with indicated amount of CD2C2 peptide for 15 min in PBS. […] Then Src autophosphorylation was detected in the presence of 2 mM ATP/Mg^2+. […]
To support this notion, the inventors checked whether the peptides derived from C-terminus of CD2 can attenuate the binding between CD2 and Src. […] Then pull-down pellets were analyzed by Western blot with antibody against Src. […] Then Src autophosphorylation was detected in the presence of 2 mM ATP/Mg^2+. […]
The inventors incubated the test chemicals with commercially available purified Src for 15 minutes in PBS solution. […] The Src activity was determined by Western blot probing with anti-phosphorylated Tyr418. […] Both peptides were incubated in a 96 well plate, and the FRET energy transfer was measured using a spectra meter. […]

LLC-PK1 cells = assay: Western blot of Src and ERKs in LLC-PK1 cell lysates; assay type: cell-based
Protocol: FIG. 3E, FIG. 3F, and FIG. 3G: Cells were exposed to media containing different concentrations of K^+ or Na^+, and then lysed. Cell lysates were subjected to Western blot analyses of Src and ERKs as indicated. Quantitative data was presented as mean±S.E. of at three independent experiments. *, p<0.05; **, p<0.01.
To verify these findings, the inventors also conducted Western blot analyses of cell lysates after the cells were incubated in normal or low K^+ medium.

Compound | Effect on activity of Na/K-ATPase-associated Src [1] | Effect on activity of Na/K-ATPase-associated Src, Na/K-ATPase stabilized in E1P [1] | also measured
aluminum fluoride | sufficient to stimulate the Na/K-ATPase-associated Src | – | –
[Be+2].[F-].[F-] [beryllium fluoride] | sufficient to stimulate the Na/K-ATPase-associated Src | – | –
Nc1ncnc2c1ncn2[C@@H]1O[C@H](COP(=O)(O)OP(=O)(O)NP(=O)(O)O)[C@@H](O)[C@H]1O [AMP-PNP, adenyl-5′-yl imidodiphosphate] | – | completely inhibited | –
STNCV EGTAR GIVVY TGD (STNCVEGTARGIVVYTGD; listed as Sus scrofa) [CD2C2, peptide derived from C-terminus of CD2 of Na/K-ATPase α1 subunit; ouabain antagonist] | – | – | Competition with binding of GST-CD2 to Src (Src in pull-down products) (Src SH2 domain): attenuates the binding of CD2 to Src; also recorded: able to compete with and block the binding of GST-CD2 to Src SH2 domain; Competition with binding of GST-CD2 to Src (Src in pull-down products) (Src SH2 domain; listed as SEQ ID NO:1): disrupts the interaction of the ATPase CD2/Src SH2 domain; Antagonism of ouabain-induced Src activation (Na/K-ATPase/Src complex): potent ouabain antagonist; also recorded: abolished ouabain-induced Src activation in a dose-dependent manner; Antagonism of ouabain-induced Src activation (Na/K-ATPase/Src complex; listed as SEQ ID NO:1): abolishes ouabain-induced Src stimulation
C[C@@H]1O[C@@H](O[C@H]2C[C@@H](O)[C@]3(CO)[C@H]4[C@H](O)C[C@]5(C)[C@@H](C6=CC(=O)OC6)CC[C@]5(O)[C@@H]4CC[C@]3(O)C2)[C@H](O)[C@H](O)[C@H]1O [ouabain] | able to stimulate the Na/K-ATPase-associated Src | – | Effect on cellular Src activity and ERKs (LLC-PK1 cells): stimulated cellular Src activity
CCN1C(=O)C=CC1=O [NEM, N-ethylmaleimide] | – | completely inhibited | –
